Experimental data reported in US10865216B2, “Tricyclic Gyrase inhibitors” (MERCK SHARP & DOHME CORP., priority 2012, dated 2020).
Converted amounts (≈) assume the structure as drawn. Where two headings read alike, the source gives them in different places.

Tests used:
S. aureus ATCC 13709 = experiment: MIC, S. aureus ATCC 13709; type: cell-based; details: for MIC: Staphylococcus aureus
E. coli ATCC 25922 = experiment: MIC, E. coli ATCC 25922; type: cell-based; details: for MIC: Escherichia coli
[1] = S. aureus, Alamar Blue read after overnight incubation at 35° C.
[2] = E. coli, Alamar Blue read after overnight incubation at 35° C.
[3] = ATCC13709, S. aureus, Alamar Blue read after overnight incubation at 35° C., read-out: MIC Sa
[4] = ATCC25922, E. coli, Alamar Blue read after overnight incubation at 35° C., read-out: MIC Ec

For `CNc1cc(F)cc2c1[nH]c1nc(Oc3cncnc3)nc(N3CCC(C4(N)CC4)C3)c12` (centres unmarked) [Compound 4.027], the “MIC Sa” value (S. aureus ATCC 13709; [1]) was ≤0.5 µg/mL and the “MIC Ec” value (E. coli ATCC 25922; [2]) was 1 µg/mL (≈ 2.3 µM).
`CNc1cc(F)c(F)c2c1[nH]c1nc(Oc3cnc4ccnn4c3)nc(N3C[C@H]4C[C@@H](N)[C@H]4C3)c12` [Compound 10.28] was tested, and the MIC Sa (S. aureus ATCC 13709; Table 18, Sa) was ≤ 0.5 µg/mL and the MIC Ec (E. coli ATCC 25922; Table 18, Ec) was ≤ 0.5 µg/mL.
For `CNc1cc(F)cc2c1[nH]c1nc(Oc3cnc(N)nc3)nc(N3CCC4(CC4N)C3)c12` (centres unmarked) [Compound 4.173], the “MIC Sa” value (S. aureus ATCC 13709; [1]) was ≤0.5 µg/mL and the “MIC Ec” value (E. coli ATCC 25922; [2]) was 1 µg/mL (≈ 2.3 µM).
In the case of `CNc1cc(F)cc2c1[nH]c1nc(Oc3cnc(C)nc3)nc(N3CCC(C)(CN)C3)c12` (centres unmarked), the MIC (S. aureus ATCC 13709; ATCC13709, Table 16, new R4 substituents, read-out: SA MIC) is reported as ≤ 0.5 µg/mL and the MIC (E. coli ATCC 25922; ATCC25922, Table 16, new R4 substituents, EC8 not defined, read-out: EC8 MIC) is reported as ≤ 0.5 µg/mL.
With `CCc1ncc(Oc2nc(N3CCC(N)C3)c3c(n2)[nH]c2c(NC)cc(F)cc23)cn1` (centres unmarked) [Compound 4.262] the “MIC Sa” value (S. aureus ATCC 13709; [1]) was ≤0.5 µg/mL and the “MIC Ec” value (E. coli ATCC 25922; [2]) was ≤0.5 µg/mL.
`CNc1cc(F)cc2c1[nH]c1nc(Oc3cnc(C)nc3)nc(N3CC(N)C4(CC4)C3)c12` (centres unmarked) [Compound 4.065] was tested, and the “MIC Sa” value (S. aureus ATCC 13709; [1]) was ≤0.5 µg/mL and the “MIC Ec” value (E. coli ATCC 25922; [2]) was ≤0.5 µg/mL.
For `CNc1cccc2c1[nH]c1nc(Oc3cnc4cccnc4c3)cc(N3CC4C(N)C4C3)c12` (centres unmarked) [Compound 3.34], the MIC (S. aureus ATCC 13709; [3]) was ≤ 0.5 µg/mL and the MIC (E. coli ATCC 25922; [4]) was ≤ 0.5 µg/mL.
With `Cc1ncc(Oc2nc(N3CC4CC3C[C@H]4N)c3c(n2)[nH]c2c(N)cc(F)cc23)cn1` (some centres unmarked) [Compound 2.16] the MIC (S. aureus ATCC 13709; [3]) was 8 µg/mL (≈ 19 µM) and the MIC (E. coli ATCC 25922; [4]) was 16 µg/mL (≈ 38.1 µM).
`CNc1cc(F)cc2c1[nH]c1nc(Oc3cnc(N(C)N)nc3)nc(N3C[C@H]4C[C@@H]3C[C@H]4N)c12` [Compound 10.98] was tested, and the MIC Sa (S. aureus ATCC 13709; Table 18, Sa) was ≤ 0.5 µg/mL and the MIC Ec (E. coli ATCC 25922; Table 18, Ec) was ≤ 0.5 µg/mL.
In the case of `CNc1cc(F)c(C#N)c2c1[nH]c1nc(Oc3cnc(C)nc3)nc(N3C[C@H]4C[C@@H]3C[C@H]4N)c12` [Compound 10.69], the MIC Sa (S. aureus ATCC 13709; Table 18, Sa) is reported as ≤ 0.5 µg/mL and the MIC Ec (E. coli ATCC 25922; Table 18, Ec) is reported as ≤ 0.5 µg/mL.
In the case of `CNc1cccc2c1[nH]c1nc(Sc3cc4ncccc4[n+]([O-])c3)nc(N3C[C@@H]4[C@@H](N)[C@@H]4C3)c12` [Compound 1.31], the MIC (S. aureus ATCC 13709; [3]) is reported as ≤ 0.5 µg/mL and the MIC (E. coli ATCC 25922; [4]) is reported as ≤ 0.5 µg/mL.
With `CNc1cccc2c1[nH]c1nc(Sc3cnc4ccc[n+]([O-])c4c3)nc(N3CC4CNC4C3)c12` (centres unmarked) [Compound 1.32] the MIC (S. aureus ATCC 13709; [3]) was ≤ 0.5 µg/mL and the MIC (E. coli ATCC 25922; [4]) was 4 µg/mL (≈ 8.5 µM).
For `CNc1cc(F)cc2c1[nH]c1nc(Oc3cnc(N4CCOCC4)nc3)nc(N3CC4C(N)C4C3)c12` (centres unmarked) [Compound 4.211], the “MIC Sa” value (S. aureus ATCC 13709; [1]) was 16 µg/mL (≈ 32.6 µM) and the “MIC Ec” value (E. coli ATCC 25922; [2]) was >16 µg/mL.
`CNc1cc(F)cc2c1[nH]c1nc(Oc3cnc(C)nc3)nc(N3CCC4(CNC4)C3)c12` [Compound 4.125] was tested, and the “MIC Sa” value (S. aureus ATCC 13709; [1]) was ≤0.5 µg/mL and the “MIC Ec” value (E. coli ATCC 25922; [2]) was 4 µg/mL (≈ 9.21 µM).
With `CNc1cc(F)cc2c1[nH]c1nc(Oc3cnc(C4CC4)nc3)nc(N3CC4C(N)C4C3)c12` (centres unmarked) [Compound 4.241] the “MIC Sa” value (S. aureus ATCC 13709; [1]) was ≤0.5 µg/mL and the “MIC Ec” value (E. coli ATCC 25922; [2]) was ≤0.5 µg/mL.
In the case of `CNc1cccc2c1[nH]c1nc(Sc3cnc4ccc[n+]([O-])c4c3)nc(N3CC4C(N)C4C3)c12` (centres unmarked) [Compound 1.23], the “MIC Sa” value (S. aureus ATCC 13709; [1]) is reported as ≤0.5 µg/mL and the “MIC Ec” value (E. coli ATCC 25922; [2]) is reported as ≤0.5 µg/mL.
In the case of `CNc1cc(F)cc2c1[nH]c1nc(Oc3cnc(C)nc3)nc(N3CCNCC3)c12` [Compound 4.163], the “MIC Sa” value (S. aureus ATCC 13709; [1]) is reported as ≤0.5 µg/mL and the “MIC Ec” value (E. coli ATCC 25922; [2]) is reported as ≤0.5 µg/mL.
For `CNc1cc(F)cc2c1[nH]c1nc(Oc3cnc(C)nc3)nc(N3CCC4(CC3)NC(=O)NC4=O)c12` [Compound 4.107], the “MIC Sa” value (S. aureus ATCC 13709; [1]) was >16 µg/mL and the “MIC Ec” value (E. coli ATCC 25922; [2]) was >16 µg/mL.
For `CNc1cc(F)cc2c1[nH]c1nc(Oc3cnc(C#N)c(C)c3)nc(N3CC4CC(N)C4C3)c12` (centres unmarked) [Compound 4.325], the “MIC Sa” value (S. aureus ATCC 13709; [1]) was ≤0.5 µg/mL and the “MIC Ec” value (E. coli ATCC 25922; [2]) was ≤0.5 µg/mL.
With `CNc1cc(F)cc2c1[nH]c1nc(Oc3cnc4ccoc4c3)nc(N3C[C@H]4CCN[C@H]4C3)c12` [Compound 10.14] the MIC Sa (S. aureus ATCC 13709; Table 18, Sa) was ≤ 0.5 µg/mL and the MIC Ec (E. coli ATCC 25922; Table 18, Ec) was ≤ 0.5 µg/mL.
In the case of `CNc1cccc2c1[nH]c1nc(Sc3cnc4cccnc4c3)nc(N3CCNCC3)c12` [Compound 1.46], the MIC (S. aureus ATCC 13709; [3]) is reported as 2 µg/mL (≈ 4.52 µM) and the MIC (E. coli ATCC 25922; [4]) is reported as 4 µg/mL (≈ 9.04 µM).
`CNc1cc(F)cc2c1[nH]c1nc(Oc3cnc(C)nc3)nc(-c3cncc(N)c3)c12` [Compound 4.450] was tested, and the MIC (S. aureus ATCC 13709; [3]) was ≤ 0.5 µg/mL and the MIC (E. coli ATCC 25922; [4]) was 2 µg/mL (≈ 4.8 µM).
`CNc1ccc(C)c2c1[nH]c1nc(Sc3cnc4cccnc4c3)nc(N3CC4C(N)C4C3)c12` (centres unmarked) [Compound 1.58] was tested, and the MIC (S. aureus ATCC 13709; [3]) was ≤ 0.5 µg/mL and the MIC (E. coli ATCC 25922; [4]) was 8 µg/mL (≈ 17.1 µM).
`CNc1cc(F)cc2c1[nH]c1nc(Oc3cnc(C)nc3)nc(N3CC4CC4(CN)C3)c12` (centres unmarked) [Compound 4.098] was tested, and the “MIC Sa” value (S. aureus ATCC 13709; [1]) was ≤0.5 µg/mL and the “MIC Ec” value (E. coli ATCC 25922; [2]) was 1 µg/mL (≈ 2.3 µM).
With `CNc1cc(Cl)cc2c1[nH]c1nc(Oc3cnc4ccnn4c3)nc(N3C[C@H]4C[C@@H]3C[C@H]4N)c12` [Compound 10.37] the MIC Sa (S. aureus ATCC 13709; Table 18, Sa) was ≤ 0.5 µg/mL and the MIC Ec (E. coli ATCC 25922; Table 18, Ec) was ≤ 0.5 µg/mL.
With `Nc1cccc2c1[nH]c1nc(Sc3cnc4cccnc4c3)nc(N3CC4C(N)C4C3)c12` (centres unmarked) [Compound 1.09] the “MIC Sa” value (S. aureus ATCC 13709; [1]) was 64 µg/mL (≈ 145 µM) and the “MIC Ec” value (E. coli ATCC 25922; [2]) was >64 µg/mL.
For `CNc1cccc2c1[nH]c1nc(Oc3ccc[n+]([O-])c3)nc(Oc3cnc(C)nc3)c12` [Compound 8.3], the MIC (S. aureus ATCC 13709; [3]) was 2 µg/mL (≈ 4.81 µM) and the MIC (E. coli ATCC 25922; [4]) was 64 µg/mL (≈ 154 µM).
In the case of `CNc1cc(F)cc2c1[nH]c1nc(Oc3cnc4cc[s+]([O-])c4c3)nc(N3CC4(CC[C@H]4N)C3)c12` (some centres unmarked) [Compound 10.111], the MIC Sa (S. aureus ATCC 13709; Table 18, Sa) is reported as ≤ 0.5 µg/mL and the MIC Ec (E. coli ATCC 25922; Table 18, Ec) is reported as ≤ 0.5 µg/mL.
